Data: publication PMC6151508, “Development of Novel Nrf2/ARE Inducers Bearing Pyrazino[2,1-a]isoquinolin Scaffold with Potent In Vitro Efficacy and Enhanced Physicochemical Properties” (Molecules : A Journal of Synthetic Chemistry and Natural …, 2017)
Where a name gives a salt, the structure may show the parent alone.

Assays:
[1] = system: antioxidant response element (ARE); test: ARE luciferase reporter assay in HepG2-ARE-C8 cells; type: cell-based; conditions: HepG2-ARE-C8, 12 h of treatment, mean ± SD n = 3, read-out: ARE Inductivity in Luciferase Reporter Assay (induction fold)
Method: (§1) All the derivatives were evaluated for their ability to induce ARE in HepG2-ARE-C8 cell (HepG2 cells stably transfected with a luciferase reporter) by ARE luciferase reporter assay, and they were compared to the lead compound 2. At the same time, cytotoxicity studies were performed by the MTT assay against the HCT116 cells. The results of cytotoxic activity in vitro were expressed as the IC50 [18]. Because those compounds were designed for chemoprevention, they should not be cytotoxic.
HepG2-ARE-C8 cells (4 × 10^4 cells/well) were incubated overnight in 96-well plates, and then treated with different concentrations of test compounds. tBHQ was used as a positive control, DMSO was used as a negative control, and the luciferase cell culture lysis reagent was used as a blank. The medium was removed after 12 h treatment. Then, the cells were harvested in the luciferase cell culture lysis reagent together with 100 μL of cold PBS. Then, centrifuging the solution and 20 μL of the supernatant was used for determining the luciferase activity. The luciferase activity was measured by a Luminoskan Ascent (Thermo Scientific, Waltham, MA, USA). The data were obtained in triplicate and expressed as fold induction over the control. Induction fold = (RLUtest − RLUblank)/(RLUDMSOcontrol − RLUblank). RLU = relative light unit l.

[2] = MTT cell viability (cytotoxicity) assay; type: cell-based; conditions: human, HCT116 cells
Method: as §1
Cell viabilities were determined by using 3-[4,5-dimethylthiazol-2-yl]-2,5-diphenyltetrazolium bromide (MTT) assay. MTT was dissolved in (phosphate buffered solution) PBS to a concentration of 5 mg/mL. HCT116 cells (8 × 10^3 cells/well) were plated in 96-well plates and incubated overnight. Different concentrations of test compounds were added to each cell for 24 h at 37 °C, and the 20 μL MTT solution was added and incubated for an additional 4 h. Then, 100 μL of DMSO was added to dissolve formazan precipitate after the solution was removed. The OD value was determined at 570 nm by Elx800 absorbance microplate reader (BioTek, Winooski, VT, USA). IC50 value (concentration at which cell survival equals 50% of control) = […].

Row | SMILES | melting point | fold induction at 0.1 µM [1] | fold induction at 1 µM [1] | fold induction at 5 µM [1] | fold induction at 10 µM [1] | fold induction at 50 µM [1] | fold induction at 100 µM [1] | IC50 at 24 h [2]
1 | O=C(C=C1NCC2c3ccccc3CCN2C1=O)C1=CCCCC1 (centres unmarked) [Compound 2f, 3-(2-(cyclohex-1-en-1-yl)-2-oxoethylidene)-1,2,3,6,7,11b-hexahydro-4H-pyrazino[2,1-a]isoquinolin-4-one] | 180 to 182 °C | 3.27 ± 1.59 | 2.1 ± 0.59 | 5.46 ± 1.83 | 8.45 ± 1.05 | 3.34 ± 1.05 | 3.07 ± 0.43 | 171 µM
2 | O=C(C=C1NCC2c3ccccc3CCN2C1=O)c1cnc2ccccc2c1 (centres unmarked) [Compound 2h, 3-(2-oxo-2-(quinolin-3-yl)ethylidene)-1,2,3,6,7,11b-hexahydro-4H-pyrazino[2,1-a]isoquinolin-4-one] | 245 to 247 °C | 2.06 ± 0.98 | 3.4 ± 0.02 | 3.62 ± 0.29 | 4.59 ± 0.14 | 4.38 ± 1.94 | 4.98 ± 0.53 | 92.4 µM
3 | O=C(C=C1NCC2c3ccccc3CCN2C1=O)C1CC1 (centres unmarked) [Compound 2b, 3-(2-cyclopropyl-2-oxoethylidene)-1,2,3,6,7,11b-hexahydro-4H-pyrazino[2,1-a]isoquinolin-4-one] | 173 to 175 °C | 3.71 ± 1.41 | 3.57 ± 1.08 | 4.85 ± 0.82 | 6.58 ± 2 | 8.24 ± 0.62 | 12.9 ± 1.73 | > 300 µM
4 | O=C(C=C1NCC2c3ccccc3CCN2C1=O)c1c[nH]c2ccccc12 (centres unmarked) [Compound 2g, 3-(2-(1H-indol-3-yl)-2-oxoethylidene)-1,2,3,6,7,11b-hexahydro-4H-pyrazino[2,1-a]isoquinolin-4-one] | 270 to 272 °C | 1.27 ± 0.52 | 2.31 ± 0.24 | 4.68 ± 0.29 | 5.84 ± 0.07 | 14.5 ± 0.36 | 9.69 ± 0.8 | > 300 µM
5 | COC(=O)/C=C/C(=O)OC [DMF, Dimethyl fumarate, reference compound] | – | 1.04 ± 0.21 | 1.1 ± 0.11 | 1.4 ± 0.21 | 2.06 ± 0.25 | 3.34 ± 0.52 | 5.31 ± 0.24 | –
6 | Nc1ccc(C(=O)C=C2NCC3c4ccccc4CCN3C2=O)cc1 (centres unmarked) [Compound 1b, 3-(2-(4-aminophenyl)-2-oxoethylidene)-1,2,3,6,7,11b-hexahydro-4H-pyrazino[2,1-a]isoquinolin-4-one] | 238 to 240 °C | 1.26 ± 0.28 | 1.26 ± 0.73 | 2.78 ± 0.29 | 3.45 ± 0.03 | 2.75 ± 0.68 | 2.68 ± 0.31 | > 300 µM
7 | O=C(C=C1NCC2c3ccccc3CCN2C1=O)C1CCCCC1 (centres unmarked) [Compound 2e, 3-(2-cyclohexyl-2-oxoethylidene)-1,2,3,6,7,11b-hexahydro-4H-pyrazino[2,1-a]isoquinolin-4-one] | 203 to 205 °C | 1.92 ± 0.82 | 2.17 ± 1.05 | 3.03 ± 0.68 | 3.49 ± 0.64 | 3.92 ± 0.53 | 8.31 ± 0.25 | > 300 µM
8 | Nc1cccc(C(=O)C=C2NCC3c4ccccc4CCN3C2=O)c1 (centres unmarked) [Compound 1a, 3-(2-(3-aminophenyl)-2-oxoethylidene)-1,2,3,6,7,11b-hexahydro-4H-pyrazino[2,1-a]isoquinolin-4-one] | 206 to 208 °C | 0.56 ± 0.28 | 1.66 ± 0.05 | 2.4 ± 1.18 | 5.64 ± 2.06 | 7.53 ± 1.28 | 7.62 ± 2.79 | > 300 µM
9 | O=C(C=C1NCC2c3ccccc3CCN2C1=O)C1CCCC1 (centres unmarked) [Compound 2d, 3-(2-cyclopentyl-2-oxoethylidene)-1,2,3,6,7,11b-hexahydro-4H-pyrazino[2,1-a]isoquinolin-4-one] | 185 to 187 °C | 1.06 ± 0.09 | 3.19 ± 0.52 | 4.06 ± 0.3 | 7.38 ± 0.31 | 5.22 ± 1.28 | 5.83 ± 0.38 | 161 µM
10 | CCCC(=O)C=C1NCC2c3ccccc3CCN2C1=O (centres unmarked) [Compound 2a, 3-(2-oxopentylidene)-1,2,3,6,7,11b-hexahydro-4H-pyrazino[2,1-a]isoquinolin-4-one] | 158 to 160 °C | 2.38 ± 0.11 | 2.28 ± 0.78 | 2.55 ± 0.31 | 3.09 ± 1.09 | 6.74 ± 0.67 | 19.6 ± 0.47 | > 300 µM
11 | O=C(C=C1NCC2c3ccccc3CCN2C1=O)c1ccc(N2CCOCC2)cc1 (centres unmarked) [Compound 2i, 3-(2-(4-morpholinophenyl)-2-oxoethylidene)-1,2,3,6,7,11b-hexahydro-4H-pyrazino[2,1-a]isoquinolin-4-one] | 235 to 237 °C | 1.71 ± 0.71 | 1.88 ± 1.36 | 1.37 ± 0.19 | 1.66 ± 0.53 | 1.16 ± 0.63 | 1.42 ± 0.31 | 237 µM

Further lines, with some results ahead:

Row | melting point | SMILES | fold induction at 0.1 µM [1] | fold induction at 1 µM [1] | fold induction at 5 µM [1] | fold induction at 10 µM [1] | fold induction at 50 µM [1] | fold induction at 100 µM [1] | IC50 at 24 h [2]
12 | 174 to 176 °C | O=C(C=C1NCC2CCCCN2C1=O)c1cccc([N+](=O)[O-])c1 (centres unmarked) [Compound 3d, 3-(2-(3-nitrophenyl)-2-oxoethylidene)octahydro-4H-pyrido[1,2-a]pyrazin-4-one] | 1.96 ± 0.88 | 3.85 ± 1 | 12 ± 2.55 | 19.5 ± 3.09 | 47.6 ± 3.54 | 8.66 ± 3.27 | 181 µM
13 | 133 to 135 °C | COc1cccc(C(=O)C=C2NCC3CCCCN3C2=O)c1 (centres unmarked) [Compound 3e, 3-(2-(3-methoxyphenyl)-2-oxoethylidene)octahydro-4H-pyrido[1,2-a]pyrazin-4-one] | 1.4 ± 1.21 | 1.82 ± 1.15 | 6.59 ± 0.77 | 9.16 ± 0.42 | 9.36 ± 3.76 | 1.44 ± 1.75 | > 300 µM
14 | 151 to 153 °C | O=C(C=C1NCC2CCCCN2C1=O)c1nccs1 (centres unmarked) [Compound 3i, 3-(2-oxo-2-(thiazol-2-yl)ethylidene)octahydro-4H-pyrido[1,2-a]pyrazin-4-one] | 1.52 ± 0.87 | 4.02 ± 3.05 | 6.41 ± 1.48 | 9.28 ± 0.55 | 13.5 ± 0.8 | 16.7 ± 1.39 | > 300 µM
15 | 157 to 159 °C | O=C(C=C1NCC2CCCCN2C1=O)c1cccc(Cl)c1 (centres unmarked) [Compound 3c, 3-(2-(3-chlorophenyl)-2-oxoethylidene)octahydro-4H-pyrido[1,2-a]pyrazin-4-one] | 1.85 ± 0.21 | 8.41 ± 0.04 | 10.2 ± 3.44 | 11.4 ± 1.12 | 1.13 ± 1.03 | 1.33 ± 0.19 | 174 µM
16 | 197 to 199 °C | O=C(C=C1NCC2CCCCN2C1=O)c1ccc(-c2ccccc2)cc1 (centres unmarked) [Compound 3f, 3-(2-([1,1′-biphenyl]-4-yl)-2-oxoethylidene)octahydro-4H-pyrido[1,2-a]pyrazin-4-one] | 2.96 ± 0.66 | 2.21 ± 0.52 | 3.6 ± 0.42 | 1.76 ± 0.1 | 2.47 ± 0.03 | 2.69 ± 2.75 | 184 µM
17 | 182 to 184 °C | O=C(C=C1NCC2CCCCN2C1=O)c1cccs1 (centres unmarked) [Compound 3h, 3-(2-oxo-2-(thiophen-2-yl)ethylidene)octahydro-4H-pyrido[1,2-a]pyrazin-4-one] | 2.06 ± 0.22 | 2.12 ± 0.31 | 8.3 ± 2.55 | 10.5 ± 3.82 | 28.9 ± 0.46 | 1.63 ± 0.25 | > 300 µM
